Measured values as given in ChEMBL document CHEMBL1142738, “N-substituted piperidinyl alkyl imidazoles: discovery of methimepip as a potent and selective histamine H3 receptor agonist” (J Med Chem, 2005).

Legend:
Histamine H3 receptor [1] = molecular target: T1, Histamine H3 receptor (Homo sapiens, UniProt Q9Y5N1); test: Inhibition of cAMP-stimulated beta-galactosidase transcription in SK-N-MC cells expressing human H3 receptor; type: functional, cell-based
Histamine H3 receptor [2] = molecular target: T1, Histamine H3 receptor; test: Displacement of [3H]N-R-methylhistamine binding to SK-N-MC cell membranes expressing human H3 receptor
Histamine H1 receptor = Histamine H1 receptor (Homo sapiens, UniProt P35367); test: Displacement of [3H]mepyramine binding to COS-7 cell membranes expressing human histamine H1 receptor
Histamine H1 receptor, sequence (P35367 whole entry): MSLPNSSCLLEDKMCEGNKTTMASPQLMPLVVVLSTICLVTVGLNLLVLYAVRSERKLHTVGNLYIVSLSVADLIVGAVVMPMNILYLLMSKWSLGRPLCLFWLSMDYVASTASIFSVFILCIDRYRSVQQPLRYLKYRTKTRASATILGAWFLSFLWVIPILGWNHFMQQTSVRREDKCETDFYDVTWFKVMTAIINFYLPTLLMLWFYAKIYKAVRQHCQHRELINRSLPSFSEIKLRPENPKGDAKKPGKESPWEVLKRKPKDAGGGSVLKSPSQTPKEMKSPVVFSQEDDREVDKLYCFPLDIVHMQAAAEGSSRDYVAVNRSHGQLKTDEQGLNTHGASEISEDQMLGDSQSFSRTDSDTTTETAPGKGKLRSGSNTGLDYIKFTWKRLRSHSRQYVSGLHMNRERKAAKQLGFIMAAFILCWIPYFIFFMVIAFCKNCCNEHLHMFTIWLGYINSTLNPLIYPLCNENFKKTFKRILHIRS

Histamine H2 receptor = Histamine H2 receptor (Homo sapiens, UniProt P25021); test: Displacement of [125I]aminopotentidine binding to CHO cell membranes expressing human histamine H2 receptor
Histamine H2 receptor, sequence (P25021 whole entry): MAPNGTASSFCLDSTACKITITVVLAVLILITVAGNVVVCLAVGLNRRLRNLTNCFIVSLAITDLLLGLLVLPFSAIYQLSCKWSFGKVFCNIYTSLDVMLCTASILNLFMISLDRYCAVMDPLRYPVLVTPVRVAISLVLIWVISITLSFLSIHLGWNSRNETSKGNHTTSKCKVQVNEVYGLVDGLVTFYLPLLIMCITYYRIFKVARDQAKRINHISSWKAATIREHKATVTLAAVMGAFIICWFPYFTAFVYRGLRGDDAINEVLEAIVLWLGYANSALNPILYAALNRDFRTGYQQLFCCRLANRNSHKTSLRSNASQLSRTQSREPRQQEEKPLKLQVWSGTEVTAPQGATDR

Histamine H4 receptor = Histamine H4 receptor (Homo sapiens, UniProt Q9H3N8); test: Displacement of [3H]histamine binding to SK-N-MC cell membranes expressing human histamine H4 receptor
Histamine H4 receptor, sequence (Q9H3N8 whole entry): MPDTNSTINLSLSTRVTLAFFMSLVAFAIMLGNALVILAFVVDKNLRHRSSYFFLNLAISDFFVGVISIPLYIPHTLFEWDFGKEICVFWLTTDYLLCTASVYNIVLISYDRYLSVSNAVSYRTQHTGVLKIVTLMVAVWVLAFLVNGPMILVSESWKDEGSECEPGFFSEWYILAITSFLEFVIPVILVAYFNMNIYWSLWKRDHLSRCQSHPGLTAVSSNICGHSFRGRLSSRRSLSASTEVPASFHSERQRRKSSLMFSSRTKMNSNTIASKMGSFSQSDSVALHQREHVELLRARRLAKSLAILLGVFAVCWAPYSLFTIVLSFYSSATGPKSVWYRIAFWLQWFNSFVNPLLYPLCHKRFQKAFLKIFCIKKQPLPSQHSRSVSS

[3] = test system: Histamine H3 receptor (Cavia porcellus); test: Effect on guinea pig ileal muscle contraction evoked by electrical field stimulation (EFS)

T1 sequence (Q9Y5N1 whole entry): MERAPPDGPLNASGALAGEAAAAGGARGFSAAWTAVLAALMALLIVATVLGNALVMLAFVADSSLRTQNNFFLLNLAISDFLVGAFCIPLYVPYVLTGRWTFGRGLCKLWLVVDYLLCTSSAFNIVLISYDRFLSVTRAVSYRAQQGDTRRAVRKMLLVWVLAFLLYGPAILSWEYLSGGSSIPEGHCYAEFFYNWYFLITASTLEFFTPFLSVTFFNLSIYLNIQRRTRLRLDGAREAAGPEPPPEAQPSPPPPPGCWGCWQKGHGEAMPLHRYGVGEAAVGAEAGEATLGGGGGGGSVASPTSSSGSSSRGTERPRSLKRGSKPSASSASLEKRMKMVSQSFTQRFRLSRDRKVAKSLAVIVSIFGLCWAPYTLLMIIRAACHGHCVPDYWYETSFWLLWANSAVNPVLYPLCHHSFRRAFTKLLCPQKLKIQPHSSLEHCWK

Structure (SMILES)	EC50 (Histamine H3 receptor [1]) [nM]	Ki (Histamine H3 receptor [2]) [nM]	Ki (Histamine H1 receptor) [nM]	Ki (Histamine H2 receptor) [nM]	Ki (Histamine H4 receptor) [nM]	pD2 [3]
c1ccc(CCCN2CCC(Cc3c[nH]cn3)CC2)cc1	31.6	39.8	–	–	–	–
c1nc(CCC2CCN(C3CCCCC3)CC2)c[nH]1	316	158	–	–	–	–
C(=C1CCNCC1)c1c[nH]cn1	–	6.31	–	–	–	–
C(=C1CCN(Cc2ccccc2)CC1)c1c[nH]cn1	79.4	398	–	–	–	–
CCN1CCC(=Cc2c[nH]cn2)CC1	25.1	50.1	–	–	–	–
CN1CCC(=Cc2c[nH]cn2)CC1	2.51	5.01	–	–	–	–
CCN1CCC(CCc2c[nH]cn2)CC1	> 10000	63.1	–	–	–	–
CN1CCC(Cc2c[nH]cn2)CC1 [METHIMEPIP]	0.316	1	> 10000	> 10000	2000	8.26
CCN1CCC(Cc2c[nH]cn2)CC1	3.98	15.8	–	–	–	–
CC(C)N1CCC(CCc2c[nH]cn2)CC1	200	100	–	–	–	–
CC(C)N1CCC(Cc2c[nH]cn2)CC1	7.94	63.1	–	–	–	–
CN1CCC(CCc2c[nH]cn2)CC1	50.1	50.1	–	–	–	–
C(=C1CCN(C2CCCCC2)CC1)c1c[nH]cn1	50.1	31.6	–	–	–	–
c1nc(CCC2CCNCC2)c[nH]1	12.6	–	–	–	–	–
CC(C)N1CCC(=Cc2c[nH]cn2)CC1	63.1	63.1	–	–	–	–
c1nc(CC2CCNCC2)c[nH]1 [IMMEPIP]	–	0.501	–	> 10000	20	8.4
c1ccc(CCN2CCC(CCc3c[nH]cn3)CC2)cc1	> 10000	39.8	–	–	–	–
C(=C1CCN(CCc2ccccc2)CC1)c1c[nH]cn1	15.8	63.1	–	–	–	–
c1nc(CC2CCN(C3CCCCC3)CC2)c[nH]1	3.98	15.8	–	–	–	–
c1ccc(CCN2CCC(Cc3c[nH]cn3)CC2)cc1	7.94	10	–	–	–	–
c1ccc(CN2CCC(CCc3c[nH]cn3)CC2)cc1	> 10000	79.4	–	–	–	–
c1ccc(CN2CCC(Cc3c[nH]cn3)CC2)cc1	15.8	50.1	–	–	–	–
